The results in this text go back to the METLIN SMRT retention time set (Domingo-Almenara et al. 2019).

The nature of this data set: gradient 5% acetonitrile 3 min, to 50% in 2 min, to 85% in 15 min, held 3 min, 100 µL/min. The note with it: column: Zorbax Extend-C18 2.1 x 50 mm; eluents: water / acetonitrile, 0.1% formic acid. The essentials: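 Using water and acetonitrile that each contained 0.1% formic acid, mixtures of ~100 pure standards were separated at 100 μL/min on a Zorbax Extend-C18 column (2.1 × 50 mm, 1.8 μm). The HPLC fed a quadrupole time-of-flight mass spectrometer working in positive and negative ionization mode, with dead and dwell volumes of 40 μL and 900 μL. Data were acquired over 3 months. Retention time was read from computationally picked adduct peaks after manual inspection of each.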
The compound `CC1CCCN(S(=O)(=O)c2cc(C(=O)NCCC3=CCCCC3)n(C)c2)C1` (centres undefined) displayed an RP-LC retention time of 1140 s.
For `CC(C)c1nnc(-c2ccc(S(=O)(=O)N3CCN(c4ccccn4)CC3)o2)o1`, the RP-LC retention time came to 675 s.
As for `O=c1c(NC2CCCC2)nc2ccncc2n1Cc1ccccc1`, the RP-LC retention time worked out at 682 s.
Regarding `CCOc1ccc(N2CC(NC(=O)Nc3ccc(OC(F)F)cc3)CC2=O)cc1` (centres undefined), the RP-LC retention time amounted to 754 s.
The result for `COc1ccccc1-c1noc(C2CCCN2C(=O)Nc2ccc(Br)cc2)n1` (centres undefined) reads 964 s; that for `CCN1CCCn2cc(S(=O)(=O)N3CCN(c4ccccc4OC)CC3)cc2C1=O`, 784 s.
`CC(=O)N1CCc2cc(S(=O)(=O)Nc3ccc4c(c3)-c3nc(C)sc3CC4)ccc21`: the RP-LC retention time was determined as 784 s.
`CC(C)c1cccc(NC(=O)Cn2ncc3c(N4CCN(c5ccccn5)CC4)ncnc32)c1` yielded an RP-LC retention time of 570 s.
The compound `CCCN(CCC)C(=O)c1cc(NC(=O)C(C)C)cnc1N1CCNCC1` yielded an RP-LC retention time of 606 s.
`CCn1c(C(=O)NCCCN2CCCC2=O)c(N2CCCC2=O)c2cc(OC)ccc21` showed an RP-LC retention time of 677 s.
`O=C(NCc1csc(-c2ccccc2)n1)C1CCN(S(=O)(=O)c2ccc(F)cc2)CC1` showed an RP-LC retention time of 910 s.
As to `CN(C)CCCN(C(=O)c1ccc(Br)s1)c1nc2c(F)cccc2s1`, the RP-LC retention time is 617 s.
Take `O=C(NCCC1CCN(S(=O)(=O)c2ccccc2)CC1)Nc1ccc(F)cc1F`: the RP-LC retention time was 910 s.
The result for `c1ccc(-c2nc3cnc(N4CCN(c5ccccc5)CC4)nc3o2)cc1` reads 1340 s; that for `CCC(C)C(NC(=O)c1ccc(C)cc1)C(=O)Nc1nc2ccccc2[nH]1` (centres undefined), 765 s; that for `CCOC(=O)c1ccc(NC(=O)CC2Sc3ncnn3C2=O)cc1` (centres undefined), 642 s.
Turning to `Cc1cc(F)ccc1NC(=O)CN1C(=O)CCCc2cc(S(=O)(=O)N3CCCC3)ccc21`, the RP-LC retention time was 817 s.
As to `O=C(c1cnccn1)N1CCCn2nc(-c3cccs3)cc2C1`, the RP-LC retention time was 689 s.
Turning to `CCCNC(=O)c1cn(-c2ncccc2-c2nc(C(C)(C)C)no2)cn1`, the RP-LC retention time stood at 768 s.
Compound `COc1ccc(-c2nc3ccc(C)cn3c2Nc2ccc3c(c2)OCO3)cc1` gave an RP-LC retention time of 684 s.
As for `Cc1nc(NC2=NCN(CCc3cccs3)CN2)nc2ccccc12`, the RP-LC retention time worked out at 731 s.
The compound `Cc1cccc(-c2noc(Cn3ccn(-c4cc(C)ccc4C)c(=O)c3=O)n2)c1` gave an RP-LC retention time of 963 s.
`CCN1CCc2nc(NC(=O)C3CCN(S(=O)(=O)c4ccc(Cl)s4)CC3)sc2C1` registered an RP-LC retention time of 656 s.
Compound `O=C(c1cc(-c2ccccc2)n[nH]1)N1CCN(S(=O)(=O)c2ccc(F)cc2)CC1` returned an RP-LC retention time of 840 s.
`Cn1ncc2c3ccccc3n(CC(=O)NCCCN3CCCCC3)c2c1=O` yielded an RP-LC retention time of 580 s.
Turning to `CCC(C)NC(=O)C1CC(=O)N(c2ccc3c(c2)CCN3C(=O)C2CC2)C1` (centres undefined), the RP-LC retention time was found to be 686 s.
Next, `Cc1c(-c2ccnc(N3CCCC3)n2)cnc2nc(-c3ccccc3)nn12`: 933 s; `CCCC(C)C(=O)NCCc1nc2cccnc2n1C` (centres undefined): 593 s; `CCS(=O)(=O)N1CCN(C(=O)c2cc(-c3ccc(OC)cc3)n[nH]2)CC1`: 654 s.
With `COc1ccc(-c2noc(COC(=O)C3=CN(Cc4ccccc4)S(=O)(=O)N=C3C)n2)cc1`, the RP-LC retention time was found to be 1090 s.
For the compound `O=C(Nc1ccccc1C(F)(F)F)NC1CCN(c2ccc(F)cc2)C1=O` (centres undefined), the RP-LC retention time amounted to 850 s.
Regarding `O=c1n(Cc2cccc(Cl)c2)nc2c(S(=O)(=O)N3CCCC3)cccn12`, the RP-LC retention time amounted to 882 s.
On to `CSc1cccc(NC(=O)N2CCN(C3=CC4=NCC(C)N4C=N3)CC2)c1` (centres undefined), for which the RP-LC retention time is 650 s.
In turn, `CC(C)CCn1nc2c(S(=O)(=O)N3CCOCC3)cccn2c1=O` registered an RP-LC retention time of 758 s.
`CCOC(=O)c1c(C)[nH]c(C(=O)N2CCCC(C(=O)NCc3ccc(OC(C)C)cc3)C2)c1C` (centres undefined): the RP-LC retention time came out at 930 s.
Compound `Cc1ccc(CNCc2ccc3c(c2)n(C)c(=O)n3C)cc1` yielded an RP-LC retention time of 619 s.
`Cc1cc(NC(=O)C2CCCN(c3nc4ccsc4c(=O)n3Cc3ccc(F)cc3)C2)ccc1F` (centres undefined) gave an RP-LC retention time of 1050 s.
Regarding `CC(C)CNC(=O)C1CCN(S(C)(=O)=O)c2cc(Cl)ccc2O1` (centres undefined), the RP-LC retention time worked out at 809 s.
The compound `CCN(CC)S(=O)(=O)c1ccc2c(c1)N(CC(=O)N1CCOCC1)C(=O)C1CCCCN21` (centres undefined) came in with an RP-LC retention time of 777 s.
Next, `CCOc1ccc(CN2C[C@@H]3C(=O)N(CCN4CCc5ccccc5C4)C(=O)[C@@H]3C2)cc1`: 598 s; `O=C(CN1CCC2(CC1)NC(=O)c1ccccc1N2)Nc1ccc(Cl)cc1`: 637 s; `CCc1ccccc1S(=O)(=O)N1CCC(c2cc(N)on2)CC1`: 824 s.
Take `CC1=NS(=O)(=O)N(Cc2ccccc2)C=C1C(=O)OCc1noc(-c2cccc(F)c2)n1`: the RP-LC retention time worked out at 1130 s.
The compound `COc1ccc(-c2noc(-c3nn(-c4cccc(F)c4)ccc3=O)n2)cc1OC` had an RP-LC retention time of 804 s.
`Cc1cccc(OCC(O)Cn2c(C3CC3)nc3ccccc32)c1` (centres undefined): the RP-LC retention time came to 685 s.
`COc1cccc(N2C=C(C(=O)N3CCCC3)S(=O)(=O)c3ccccc32)c1` yielded an RP-LC retention time of 770 s.
On to `Cc1occc1-c1nnc2sc(COc3ccc(Br)cc3)nn12`, for which the RP-LC retention time came to 1040 s.
For `CCCn1cc(C(=O)NCCC(C)C)c2nn(-c3ccccc3)c(=O)c-2c1`, the RP-LC retention time turned out to be 968 s.
The compound `Cc1ccc(S(=O)(=O)[C@H]2CS(=O)(=O)C[C@@H]2N2CCN(Cc3ccccc3)CC2)cc1` came in with an RP-LC retention time of 651 s.
Take `COc1cc2c(cc1NC(=O)c1ccco1)n(C)c(=O)n2C`: the RP-LC retention time came out at 688 s.
`Cc1cccc(-c2noc(C3CCCN3C(=O)CNC(=O)c3cccs3)n2)c1` (centres undefined) came in with an RP-LC retention time of 610 s.
As to `Cc1nn(CCC(=O)NCCc2ccco2)c(=O)c2nn(-c3ccccc3)c(C)c12`, the RP-LC retention time stood at 726 s.
The compound `O=C(CCC1CCN(S(=O)(=O)c2ccccc2)CC1)NC1CCCC1` registered an RP-LC retention time of 852 s.
For the compound `O=C(CNC(=O)c1cccs1)Nc1nc2ccccc2[nH]1`, the RP-LC retention time was 599 s.
Next, `O=C(Cc1cccc(F)c1)N1CCN(c2cc(-c3cccs3)[nH]n2)CC1`: 798 s; `COc1ccc(-c2cc3nn(CC(=O)Nc4cc(F)ccc4C)c(=O)n3c(C)n2)cc1`: 885 s.
Take `Cc1nn(-c2ccc(Cl)cc2)c(C)c1S(=O)(=O)N1CCC(C(=O)NCC2CCCO2)CC1` (centres undefined): the RP-LC retention time is 843 s.
The result for `CSc1ccc(-c2nc3ncccn3c2Nc2cccc(C)c2)cc1` reads 843 s; that for `Cc1ccccc1C(=O)NCCN1CCN(c2ccc(Cl)cc2)CC1`, 610 s.
